Results as given in ChEMBL document CHEMBL6153139, “Discovery of Novel Isoxazole-Based Small-Molecule Toll-Like Receptor 8 Antagonists” (J Med Chem, 2025).
Activity calls are given as the source filed them. The rule behind the calls is not given here.

Columns and labels:
[1] = Cytotoxicity against HEK-Blue hTLR8 cells assessed as reduction in cell viability at 25 to 50 uM incubated for 24 hrs by MTT assay; format: toxicity, cell-based; settings: human, hek-blue htlr8, 24 h, dose 25-50 µM
[2] = tested on: T1, Toll-like receptor 8 (Homo sapiens), Q9NR97 [F495L]; assay: Antagonist activity at human TLR8 F495L mutant transfected in HEK293 cells assessed as inhibition of TL8-506 induced NFkappaB activation at 1 uM preincubated with compound for 1 hrs followed by TL8-506 addition and measured after 24 hrs by Quanti-blue reagent based SEAP reporter assay; format: cell-based; settings: filed as antagonist
T1 sequence (whole entry): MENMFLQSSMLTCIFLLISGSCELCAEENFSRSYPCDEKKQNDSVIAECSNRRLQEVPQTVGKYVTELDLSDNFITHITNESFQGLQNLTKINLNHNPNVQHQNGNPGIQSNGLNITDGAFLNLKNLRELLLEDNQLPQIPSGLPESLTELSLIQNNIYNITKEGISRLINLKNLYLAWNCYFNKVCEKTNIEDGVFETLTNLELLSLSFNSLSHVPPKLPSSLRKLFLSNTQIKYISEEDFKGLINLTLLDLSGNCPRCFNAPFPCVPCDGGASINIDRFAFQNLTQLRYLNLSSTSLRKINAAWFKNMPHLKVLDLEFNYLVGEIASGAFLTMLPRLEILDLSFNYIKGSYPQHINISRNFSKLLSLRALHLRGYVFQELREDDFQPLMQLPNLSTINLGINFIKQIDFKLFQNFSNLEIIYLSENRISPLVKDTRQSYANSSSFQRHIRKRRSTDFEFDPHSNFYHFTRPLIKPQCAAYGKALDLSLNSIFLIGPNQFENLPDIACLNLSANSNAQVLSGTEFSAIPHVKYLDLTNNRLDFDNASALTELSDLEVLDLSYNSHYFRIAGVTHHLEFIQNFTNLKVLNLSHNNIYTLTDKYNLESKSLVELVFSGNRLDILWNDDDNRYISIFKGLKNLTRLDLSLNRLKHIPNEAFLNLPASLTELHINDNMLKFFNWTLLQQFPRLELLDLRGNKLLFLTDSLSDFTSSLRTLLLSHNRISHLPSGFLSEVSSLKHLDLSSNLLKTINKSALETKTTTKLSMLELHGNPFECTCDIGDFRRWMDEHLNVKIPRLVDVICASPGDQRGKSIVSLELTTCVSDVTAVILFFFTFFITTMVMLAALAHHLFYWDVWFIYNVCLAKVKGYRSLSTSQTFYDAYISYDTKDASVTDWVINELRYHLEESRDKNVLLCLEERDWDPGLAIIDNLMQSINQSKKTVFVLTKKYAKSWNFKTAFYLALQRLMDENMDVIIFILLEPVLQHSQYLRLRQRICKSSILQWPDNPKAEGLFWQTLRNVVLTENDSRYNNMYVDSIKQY

[3] = tested on: T1, Toll-like receptor 8 (Homo sapiens), Q9NR97 [F495L]; assay: Antagonist activity at human TLR8 F495L mutant transfected in HEK293 cells assessed as inhibition of CL075 induced NFkappaB activation at 1 uM preincubated with compound for 1 hrs followed by CL075 addition and measured after 24 hrs by Quanti-blue reagent based SEAP reporter assay; format: cell-based; settings: filed as antagonist
[4] = tested on: THP-1; assay: Cytotoxicity against human THP-1 cells assessed as reduction in cell viability upto 100 uM incubated for 24 hrs by MTT assay; format: toxicity, cell-based; settings: thp-1, 24 h
[5] = Cytotoxicity against human PBMC cells assessed as reduction in cell viability upto 100 uM incubated for 24 hrs by LDH release assay; format: toxicity, cell-based

In the case of `COc1cc(C(=O)NCCN2CCCC2)ccc1OCc1c(C)noc1C`, the Activity [1] is reported as “Non-toxic”.
For `Cc1noc(C)c1COc1ccc(C(=O)NCC(c2ccco2)N(C)C)cc1` (configuration not stated), the Activity [1] was “Non-toxic”.
In the case of `N#Cc1ccc(N2C[C@H](N)C[C@H](C(F)(F)F)C2)c2cccnc12`, the Activity [2] is reported as “Active” and the Activity [3] is reported as “Active”.
With `COc1cc(C(=O)NCC(c2ccc(C)cc2)N(C)C)ccc1OCc1c(C)noc1C` (configuration not stated) the Activity [1] was “Non-toxic”, the Activity [4] was “Non-toxic” and the Activity [5] was “Non-toxic”.
